Measurements as given in patent publication US9371336B2, “Compounds for treating spinal muscular atrophy” (PTC Therapeutics Inc., priority 2012, dated 2016).

Tests used:
[1] = system: Smn protein; experiment: Smn protein assay (HTRF) in cultured cells (SMA patient fibroblasts GM03813); type: cell-based, human; conditions: 48 hours; for EC1.5x for Smn protein expression: SMA patient fibroblast cells (GM03813), HTRF, 7-point concentration data, concentration producing 1.5 times Smn protein vs DMSO vehicle control; for maximum fold (Fold) increase of Smn protein: SMA patient fibroblast cells, 7-point concentration curve, relative to vehicle control
How it was run: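 SMA patient fibroblasts (GM03813) were treated 48 h at 37° C with a 7-point, 3.16-fold compound series in triplicate, then lysed in RIPA. Smn was read by HTRF (anti-SMN d2/kryptate, 665/620 nm ratio). ΔF versus blank was divided by vehicle ΔF to give fold Smn increase.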

[2] = system: SMN2 minigene mRNA (SMN2-A minigene construct); experiment: SMN2 minigene mRNA splicing RT-qPCR assay in cultured cells; type: cell-based, human; conditions: Homo sapiens, HEK293-H; HEK293H cells stably transfected with SMN2-A minigene, 24 hours, 7-point concentration data; concentration giving 1.5-fold SMN2 full length mRNA relative to vehicle-treated cells; read-out: EC1.5x for production of full length SMN2 mRNA
How it was run: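 Full-length SMN2 minigene mRNA, measured by exon 7/luciferase-specific RT-qPCR that excludes endogenous SMN1/SMN2, was normalized to GAPDH and expressed relative to vehicle-treated cells via modified ΔΔCt. Stably transfected HEK293H cells received compound (7-point, 3.16-fold series, duplicates) for 24 h at 37 °C.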

| melting point [°C] | SMILES | EC1.5x for Smn protein expression [1] | maximum fold (Fold) increase of Smn protein [1] | EC (1.5-fold) [2] [µM] |
| --- | --- | --- | --- | --- |
| 279 to 282 | Cc1cn2cc(-c3cc4ccc(N5C[C@@H](C)N[C@@H](C)C5)nc4oc3=O)nc2c(C)n1 [Cpd 90, 3-(6,8-dimethylimidazo[1,2-a]pyrazin-2-yl)-7-[(3R,5S)-3,5-dimethylpiperazin-1-yl]-2H-pyrano[2,3-b]pyridin-2-one] | **** (an EC1.5×≦0.3 μM is indicated by four stars (****)) | ***** (a fold increase >1.65 is indicated by five stars (*****)) | ≤ 0.1 |
| 243 to 245 | Cc1cn2cc(-c3cc4ccc(N5CCCN(C)CC5)nc4oc3=O)nc2c(C)n1 [Cpd 91, 3-(6,8-dimethylimidazo[1,2-a]pyrazin-2-yl)-7-(4-methyl-1,4-diazepan-1-yl)-2H-pyrano[2,3-b]pyridin-2-one] | **** (an EC1.5×≦0.3 μM is indicated by four stars (****)) | ***** (a fold increase >1.65 is indicated by five stars (*****)) | ≤ 0.1 |
| 210 to 212 | C[C@@H]1CN[C@@H](C)CN1c1ccc2cc(-c3cn4cccc(F)c4n3)c(=O)oc2n1 [Cpd 92, 7-[(2R,5S)-2,5-dimethylpiperazin-1-yl]-3-(8-fluoroimidazo[1,2-a]pyridin-2-yl)-2H-pyrano[2,3-b]pyridin-2-one] | **** (an EC1.5×≦0.3 μM is indicated by four stars (****)) | **** (a fold increase between >1.5 and ≦1.65 is indicated by four stars (****)) | ≤ 0.1 |
| 172 to 175 | C[C@@H]1CN[C@@H](C)CN1c1ccc2cc(-c3cn4cccc(Cl)c4n3)c(=O)oc2n1 [Cpd 94, 3-(8-chloroimidazo[1,2-a]pyridin-2-yl)-7-[(2R,5S)-2,5-dimethylpiperazin-1-yl]-2H-pyrano[2,3-b]pyridin-2-one] | **** (an EC1.5×≦0.3 μM is indicated by four stars (****)) | **** (a fold increase between >1.5 and ≦1.65 is indicated by four stars (****)) | ≤ 0.1 |
| 190 to 192 | Cc1cn2cc(-c3cc4ccc(N5C[C@H](C)NC[C@H]5C)nc4oc3=O)nc2c(C)n1 [Cpd 95, 3-(6,8-dimethylimidazo[1,2-a]pyrazin-2-yl)-7-[(2R,5S)-2,5-dimethylpiperazin-1-yl]-2H-pyrano[2,3-b]pyridin-2-one] | **** (an EC1.5×≦0.3 μM is indicated by four stars (****)) | ***** (a fold increase >1.65 is indicated by five stars (*****)) | ≤ 0.1 |
| 114 to 117 | Cc1ccn2cc(-c3cc4ccc(N5C[C@H](C)N(C)C[C@H]5C)nc4oc3=O)nc2c1 [Cpd 96, 3-(7-methylimidazo[1,2-a]pyridin-2-yl)-7-[(2R,5S)-2,4,5-trimethylpiperazin-1-yl]-2H-pyrano[2,3-b]pyridin-2-one] | – | *** (a fold increase between >1.35 and ≦1.5 is indicated by three stars (***)) | 0.3 to 1 |
| 194 to 197 | C[C@@H]1CN(C)[C@@H](C)CN1c1ccc2cc(-c3cn4cccc(F)c4n3)c(=O)oc2n1 [Cpd 97, 3-(8-fluoroimidazo[1,2-a]pyridin-2-yl)-7-[(2R,5S)-2,4,5-trimethylpiperazin-1-yl]-2H-pyrano[2,3-b]pyridin-2-one] | ** (an EC1.5× between >1 and ≦3 μM is indicated by two stars (**)) | **** (a fold increase between >1.5 and ≦1.65 is indicated by four stars (****)) | 0.1 to 0.3 |
| 191 to 196 | C[C@@H]1CN(C)[C@@H](C)CN1c1ccc2cc(-c3cn4cccc(Cl)c4n3)c(=O)oc2n1 [Cpd 98, 3-(8-chloroimidazo[1,2-a]pyridin-2-yl)-7-[(2R,5S)-2,4,5-trimethylpiperazin-1-yl]-2H-pyrano [2,3-b]pyridin-2-one] | ** (an EC1.5× between >1 and ≦3 μM is indicated by two stars (**)) | **** (a fold increase between >1.5 and ≦1.65 is indicated by four stars (****)) | 0.1 to 0.3 |
| 270 to 273 | Cc1ccn2cc(-c3cc4ccc(N5C[C@@H](C)N[C@@H](C)C5)nc4oc3=O)nc2n1 [Cpd 99, 7-[(3R,5S)-3,5-dimethylpiperazin-1-yl]-3-(7-methylimidazo[1,2-a]pyrimidin-2-yl)-2H-pyrano[2,3-b]pyridin-2-one] | – | *** (a fold increase between >1.35 and ≦1.5 is indicated by three stars (***)) | 0.1 to 0.3 |
| 246 to 249 | Cc1ccn2cc(-c3cc4ccc(N5C[C@@H](C)N[C@@H](C)C5)nc4oc3=O)nc2c1 [Cpd 100, 7-[(3R,5S)-3,5-dimethylpiperazin-1-yl]-3-(7-methylimidazo[1,2-a]pyridin-2-yl)-2H-pyrano[2,3-b]pyridin-2-one] | – | *** (a fold increase between >1.35 and ≦1.5 is indicated by three stars (***)) | ≤ 0.1 |
| 279 to 281 | Cc1cn2cc(-c3cc4ccc(N5C[C@@H](C)N[C@@H](C)C5)nc4oc3=O)nc2cn1 [Cpd 101, 7-[(3R,5S)-3,5-dimethylpiperazin-1-yl]-3-(6-methylimidazo[1,2-a]pyrazin-2-yl)-2H-pyrano[2,3-b]pyridin-2-one] | *** (an EC1.5× between >0.3 μM and ≦1 μM is indicated by three stars (***)) | **** (a fold increase between >1.5 and ≦1.65 is indicated by four stars (****)) | ≤ 0.1 |
| 248 to 250 | Cc1cn2cc(-c3cc4ccc(N5C[C@H](C)N(C)C[C@H]5C)nc4oc3=O)nc2cn1 [Cpd 103, 3-(6-methylimidazo[1,2-a]pyrazin-2-yl)-7-[(2R,5S)-2,4,5-trimethylpiperazin-1-yl]-2H-pyrano[2,3-b]pyridin-2-one] | *** (an EC1.5× between >0.3 μM and ≦1 μM is indicated by three stars (***)) | **** (a fold increase between >1.5 and ≦1.65 is indicated by four stars (****)) | 0.1 to 0.3 |
| 267 to 269 | Cc1cn2cc(-c3cc4ccc(N5CCCNCC5)nc4oc3=O)nc2cn1.Cl [Cpd 104, 7-(1,4-diazepan-1-yl)-3-(6-methylimidazo[1,2-a]pyrazin-2-yl)-2H-pyrano[2,3-b]pyridin-2-one hydrochloride] | – | ** (a fold increase between >1.2 and ≦1.35 is indicated by two stars (**)) | ≤ 0.1 |
| 290 to 293 | Cc1cn2cc(-c3cc4ccc(N5CCCN(C)CC5)nc4oc3=O)nc2cn1 [Cpd 105, 7-(4-methyl-1,4-diazepan-1-yl)-3-(6-methylimidazo[1,2-a]pyrazin-2-yl)-2H-pyrano[2,3-b]pyridin-2-one] | ** (an EC1.5× between >1 and ≦3 μM is indicated by two stars (**)) | *** (a fold increase between >1.35 and ≦1.5 is indicated by three stars (***)) | ≤ 0.1 |
